One test has as its target T1, indoleamine 2,3-dioxygenase (IDO) (Homo sapiens, UniProt P14902).
T1 construct: replaced with media containing IFNγ (#285-IF/CF, R&D Systems) at a final concentration of 25 ng/mL; endogenous in cells; host or cells: HeLa (ATCC CCL-2), IFN-gamma stimulated
Description: HeLa cell-based indoleamine 2,3-dioxygenase (IDO) assay, kynurenine production. Conditions: HeLa cells, IFNγ 25 ng/mL, 48 hour incubation; read-out: IDO Hela IC50. On the procedure:
Assessment of Inhibitor Activity in HeLa Cell-Based Indoleamine 23-Dioxygenase (IDO) Assay
Cells were maintained in a humidified incubator at 37° C. in 5% CO2.
IDO activity was assessed as a function of kynurenine production as follows: HeLa cells were seeded in a 96-well culture plate at a density of 5,000 cells/well and allowed to equilibrate overnight. […] A serial dilution of each test compound was added to the cells in a total volume of 200 μL of culture medium. After a further 48 hour incubation, 170 μL of supernatant was transferred from each well to a fresh 96-well plate. 12.1 μL of 6.1N trichloroacetic acid (#T0699, Sigma-Aldrich) was added to each well and mixed, followed by incubation at 65° C. for 20 minutes to hydrolyze N-formylkynurenine, the product of indoleamine 2,3-dioxygenase, to kynurenine. The reaction mixture was then centrifuged for 10 mins at 500×g to sediment the precipitate. 100 μL of the supernatant was transferred from each well to a fresh 96-well plate. […] Kynurenine concentrations were determined by measuring absorbance at 480 nm and calibrating against an L-kynurenine (#K8625, Sigma-Aldrich) standard curve using a SPECTRAMAX® M2e microplate reader (Molecular Devices). The percentage activity at each inhibitor concentration was determined and IC50 values assessed using nonlinear regression.
T1 sequence (P14902 whole entry): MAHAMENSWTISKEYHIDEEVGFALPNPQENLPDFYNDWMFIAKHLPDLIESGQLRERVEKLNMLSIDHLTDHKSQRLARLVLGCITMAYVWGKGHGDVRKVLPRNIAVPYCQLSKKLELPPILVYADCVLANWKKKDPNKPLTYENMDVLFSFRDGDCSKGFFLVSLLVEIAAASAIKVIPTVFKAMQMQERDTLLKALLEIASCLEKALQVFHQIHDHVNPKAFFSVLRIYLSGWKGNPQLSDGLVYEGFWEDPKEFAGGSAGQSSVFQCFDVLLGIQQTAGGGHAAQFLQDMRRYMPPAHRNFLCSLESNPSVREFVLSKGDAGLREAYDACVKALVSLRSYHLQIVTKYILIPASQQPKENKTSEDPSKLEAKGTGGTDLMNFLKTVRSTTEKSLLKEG
On to `CCOc1ncc(Nc2cc([C@H](CC)CC(=O)O)ccc2[C@H](OC)C(F)(F)F)cn1` (relative stereo) [Example 95, (R)-3-(3-((2-ethoxypyrimidin-5-yl)amino)-4-((S)-2,2,2-trifluoro-1-methoxyethyl)phenyl)pentanoic acid], for which the IC50 came to 10 nM. As for `CCO[C@@H](c1ccc([C@H](CC)CC(=O)O)cc1Nc1cnc(COC)nc1)C(F)(F)F` (single isomer, unassigned) [Example 38], the concentration for half-maximal inhibition (IC50) is 610 nM.

As for `CCO[C@H](c1ccc([C@@H](CC)CC(=O)O)cc1NC(=O)Nc1ccc(Cl)cc1F)C(F)(F)F` (single isomer, unassigned) [Example 20], the IC50 turned out to be 10 nM. For the compound `CCO[C@H](c1ccc([C@H](CC)CC(=O)O)cc1NC(=O)Nc1ccc(C)cc1)C(F)(F)F` (single isomer, unassigned) [Example 7], the half-maximal inhibitory concentration (IC50) turned out to be 60 nM. Still for that read-out and setting: next, `CCOc1ncc(Nc2cc([C@@H](CC)CC(=O)O)ccc2[C@H](OC)C(F)(F)F)cn1` (single isomer, unassigned) [Example 99]: 30 nM.

With `CCOc1ncc(Nc2cc([C@@H](CC)CC(=O)O)ccc2[C@@H](OCC)C(F)(F)F)cn1` (relative stereo) [Example 24, (S)-3-(4-((R)-1-ethoxy-2,2,2-trifluoroethyl)-3-((2-ethoxypyrimidin-5-yl)amino)phenyl)pentanoic acid], the concentration for half-maximal inhibition (IC50) amounted to 10 nM. For `CCOc1cnc(Nc2cc([C@H](CC)CC(=O)O)ccc2[C@@H](OCC)C(F)(F)F)cn1` (single isomer, unassigned) [Example 13], the IC50 is 10 nM. The same measure, in the same setting: next, “(S)-3-(3-(3-(4-cyano-3-fluorophenyl)ureido)-4-((R)-1-ethoxy-2,2,2-trifluoroethyl)phenyl)-4-methoxybutanoic acid [Example 63]”: 20 nM. `CCO[C@@H](c1ccc([C@H](COC)CC(=O)O)cc1Nc1ccc(Cl)cc1)C(F)(F)F` (single isomer, unassigned) [Example 72]: the IC50 was 10 nM. Same read-out and setting: as for `CC[C@H](CC(=O)O)c1ccc([C@@H](OC)C(F)(F)F)c(Nc2cnc(C(F)(F)F)nc2)c1` (single isomer, unassigned) [Example 92], the figure is 10 nM.

As to `CCO[C@H](c1ccc([C@H](CC)CC(=O)O)cc1Nc1cnc(OC)nc1)C(F)(F)F` (single isomer, unassigned) [Example 10], the IC50 is 20 nM. Same read-out and setting: as for `CCO[C@H](c1ccc([C@H](CC)CC(=O)O)cc1Nc1cnc(CC)nc1)C(F)(F)F` (relative stereo) [Example 18, (R)-3-(4-((R)-1-ethoxy-2,2,2-trifluoroethyl)-3-((2-ethylpyrimidin-5-yl)amino)phenyl)pentanoic acid], the figure is 40 nM; as for `CCO[C@@H](c1ccc([C@@H](CC)CC(=O)O)cc1NC(=O)Nc1ccc(C)cc1)C(F)(F)F` (single isomer, unassigned) [Example 41], 20 nM.

For `CCO[C@H](c1ccc([C@@H](COC)CC(=O)O)cc1Nc1cnc(OC)nc1)C(F)(F)F` (single isomer, unassigned) [Example 62], the 50% inhibitory concentration (IC50) was found to be 40 nM. Consider `CC[C@@H](CC(=O)O)c1ccc([C@H](OC)C(F)(F)F)c(Nc2cnc(C)nc2)c1` (single isomer, unassigned) [Example 98], for which the IC50 was found to be 150 nM.

As for `CC[C@H](c1ccc([C@@H](COC)CC(=O)O)cc1Nc1ccc(Cl)cc1)N1CCOCC1` (relative stereo) [Example 110, (S)-3-(3-((4-chlorophenyl)amino)-4-((R)-1-morpholinopropyl)phenyl)-4-methoxybutanoic acid], the IC50 came out at 380 nM. Same read-out and setting: as for `CCO[C@@H](c1ccc([C@H](COC)CC(=O)O)cc1Nc1ccc(C#N)c(F)c1)C(F)(F)F` (relative stereo) [Example 70, (R)-3-(3-((4-cyano-3-fluorophenyl)amino)-4-((S)-1-ethoxy-2,2,2-trifluoroethyl)phenyl)-4-methoxybutanoic acid], the figure is 30 nM; as for `CCOc1ncc(Nc2cc([C@@H](CC)CC(=O)O)ccc2[C@H](OCC)C(F)(F)F)cn1` (single isomer, unassigned) [Example 45], 30 nM. Still for that read-out and setting: next, `CCc1ncc(Nc2cc([C@H](CC)CC(=O)O)ccc2[C@H](CC)C2CCOCC2)cn1` (single isomer, unassigned) [Example 128]: 120 nM. Consider `CCO[C@@H](c1ccc([C@@H](CC)CC(=O)O)cc1Nc1cnc(COC)nc1)C(F)(F)F` (single isomer, unassigned) [Example 49], for which the IC50 was 440 nM. For the compound `CCO[C@@H](c1ccc([C@@H](COC)CC(=O)O)cc1Nc1ccc(C#N)c(F)c1)C(F)(F)F` (single isomer, unassigned) [Example 77], the IC50 was 30 nM.

Staying with this test, now noted: HeLa cells, IFNγ 25 ng/mL, 48 hour incubation; read-out: IDO Hela IC50 class (A < 50, B < 250, C < 2000).
As for `CCO[C@@H](c1ccc([C@@H](COC)CC(=O)O)cc1Nc1cnc(C)nc1)C(F)(F)F` [Example 81, (S)-3-(4-((S)-1-ethoxy-2,2,2-trifluoroethyl)-3-((2-methylpyrimidin-5-yl)amino)phenyl)-4-methoxybutanoic Acid], the 50% inhibitory concentration (IC50) is 250 to 2000 nM.

“(S)-3-(3-(3-(4-cyano-3-fluorophenyl)ureido)-4-((R)-1-ethoxy-2,2,2-trifluoroethyl)phenyl)-4-methoxybutanoic acid [Example 63]”: the IC50 is less than 50 nM. Still for that read-out and setting: next, `CC[C@@H](c1ccc([C@@H](COC)CC(=O)O)cc1Nc1ccc(COC)nc1)N1CCOCC1` (single isomer, unassigned) [Example 104]: 250 to 2000 nM; `CC[C@@H](CC(=O)O)c1ccc([C@@H](CC)N2CCOCC2)c(Nc2ccc(COC)nc2)c1` (relative stereo) [Example 131, (S)-3-(3-((6-(methoxymethyl)pyridin-3-yl)amino)-4-((R)-1-morpholinopropyl)phenyl)pentanoic acid]: 250 to 2000 nM; `CC[C@@H](CC(=O)O)c1ccc([C@H](OC)C(F)(F)F)c(Nc2ccc(Cl)cc2)c1` (single isomer, unassigned) [Example 84-2]: less than 50 nM. For `CC[C@H](CC(=O)O)c1ccc([C@@H](CC)N2CCOCC2)c(Nc2ccc(Cl)cc2)c1` (relative stereo) [Example 123, (R)-3-(3-((4-chlorophenyl)amino)-4-((R)-1-morpholinopropyl)phenyl)pentanoic acid], the half-maximal inhibitory concentration (IC50) was less than 50 nM. On the same count and under the same terms, next, `CC[C@@H](CC(=O)O)c1ccc([C@@H](CC)N2CCOCC2)c(Nc2ccc(OC(F)F)cn2)c1` (relative stereo) [Example 133, (S)-3-(3-((5-(difluoromethoxy)pyridin-2-yl)amino)-4-((R)-1-morpholinopropyl)phenyl)pentanoic acid]: 250 to 2000 nM. Same read-out and setting: next, `CC[C@H](c1ccc([C@@H](COC)CC(=O)O)cc1Nc1ccc(Cl)cc1)N1CCOCC1` (relative stereo) [Example 110, (S)-3-(3-((4-chlorophenyl)amino)-4-((R)-1-morpholinopropyl)phenyl)-4-methoxybutanoic acid]: 50 to 250 nM; `CCO[C@H](c1ccc([C@H](CC)CC(=O)O)cc1Nc1ccc(C#N)cc1)C(F)(F)F` (single isomer, unassigned) [Example 15]: less than 50 nM. The same measure, in the same setting: next, `CC[C@H](CC(=O)O)c1ccc([C@@H](OC)C(F)(F)F)c(Nc2ccc(C#N)cc2)c1` (relative stereo) [Example 89, (R)-3-(3-((4-cyanophenyl)amino)-4-((R)-2,2,2-trifluoro-1-methoxyethyl)phenyl)pentanoic acid]: less than 50 nM; `CC[C@H](CC(=O)O)c1ccc([C@@H](CC)C2CCOCC2)c(Nc2ccc(COC)nc2)c1` (single isomer, unassigned) [Example 127]: less than 50 nM. For `CCOc1ncc(Nc2cc([C@@H](CC)CC(=O)O)ccc2[C@H](CC)N2CCOCC2)cn1` (single isomer, unassigned) [Example 118-3], the 50% inhibitory concentration (IC50) is less than 50 nM. Still for that read-out and setting: next, `CCO[C@H](c1ccc([C@H](COC)CC(=O)O)cc1Nc1cnc(C)nc1)C(F)(F)F` (single isomer, unassigned) [Example 59]: 250 to 2000 nM.

In another test the target is T2, human IDO1 (Homo sapiens, UniProt P14902).
T2 construct: expressed in transfected cells
T2 sequence (P14902 whole entry): as above
Description: HEK293 cell-based indoleamine 2,3-dioxygenase (IDO) assay. Conditions: human IDO1/HEK293 cells, 20 hours; read-out: IDO1 HEK Human IC50. Here is the method: Assessment of Inhibitor Activity in HEK293 Cell-Based Indoleamine 2,3-Dioxygenase (IDO) Assay
HEK293 cells were transfected with a pCDNA-based mammalian expression vector harboring human IDO1 cDNA (NM 002164.2) by electroporation. They were cultured in medium (DMEM with 10% FBS) containing 1 mg/ml G418 for two weeks. Clones of HEK293 cells that stably expressed human IDO1 protein were selected and expanded for IDO inhibition assay.
The human IDO1/HEK293 cells were seeded at 10,000 cells per 50 μL per well with RPMI/phenol red free media contains 10% FBS in a 384-well black wall clear bottom tissue culture plate (Matrix Technologies LLC) 100 nL of certain concentration of compound was then added to each well using ECHO liquid handling systems. The cells were incubated for 20 hours in 37° C. incubator with 5% CO2.
The compound treatments were stopped by adding trichloroacetic acid (Sigma-Aldrich) to a final concentration at 0.2%. The cell plate was further incubated at 50° C. for 30 minute. The equal volume supernatant (20 μL) and 0.2% (w/v) Ehrlich reagent (4-dimethylaminobenzaldehyde, Sigma-Aldrich) in glacial acetic acid were mixed in a new clear bottom 384-well plate. This plate was then incubated at room temperature for 30 minute. The absorbance at 490 nm was measured on Envision plate reader.
Compound IC50 values were calculated using the counts of 500 nM of a reference standard treatment as one hundred percent inhibition, and counts of no compound but DMSO treatment as zero percent inhibition.
In the case of `Cc1ccc(NC(=O)Nc2cc(-c3ccccc3-c3nn[nH]n3)ccc2C(CC(C)C)CC(C)C)cc1` [Example 134, 1-(4-(2,6-dimethylheptan-4-yl)-2′-(2H-tetrazol-5-yl)-[1,1′-biphenyl]-3-yl)-3-(p-tolyl)urea], the IC50 stood at 20 nM.

The term IC50 denotes the concentration needed to halve the response being measured.

The record behind these values is patent publication US11253525B2, “Inhibitors of indoleamine 2,3-dioxygenase and methods of their use” (BRISTOL-MYERS SQUIBB COMPANY, priority 2018, dated 2022).
